Measurements from publication PMC12467033, “Exploring the Inhibitory Potential of Six Porphyrin Compounds Against α-Amylase and α-Glucosidase Linked to Diabetes” (Biomolecules, 2025).
Where “and” joins values, the source holds several entries; their conditions need not be identical. Identical values can stand only once. Like-named read-outs stand apart in the source and are kept apart here.

How the values were obtained:
α-glucosidase [1] = biological target: T1, α-glucosidase (Saccharomyces cerevisiae, UniProt P53341); assay type: biochemical; settings: for type of inhibition of α-glucosidase: Lineweaver–Burk plots; for reversibility of inhibition of α-glucosidase: enzyme 100–400 U/L, substrate 5 mmol/L
T1 sequence (P53341 whole entry): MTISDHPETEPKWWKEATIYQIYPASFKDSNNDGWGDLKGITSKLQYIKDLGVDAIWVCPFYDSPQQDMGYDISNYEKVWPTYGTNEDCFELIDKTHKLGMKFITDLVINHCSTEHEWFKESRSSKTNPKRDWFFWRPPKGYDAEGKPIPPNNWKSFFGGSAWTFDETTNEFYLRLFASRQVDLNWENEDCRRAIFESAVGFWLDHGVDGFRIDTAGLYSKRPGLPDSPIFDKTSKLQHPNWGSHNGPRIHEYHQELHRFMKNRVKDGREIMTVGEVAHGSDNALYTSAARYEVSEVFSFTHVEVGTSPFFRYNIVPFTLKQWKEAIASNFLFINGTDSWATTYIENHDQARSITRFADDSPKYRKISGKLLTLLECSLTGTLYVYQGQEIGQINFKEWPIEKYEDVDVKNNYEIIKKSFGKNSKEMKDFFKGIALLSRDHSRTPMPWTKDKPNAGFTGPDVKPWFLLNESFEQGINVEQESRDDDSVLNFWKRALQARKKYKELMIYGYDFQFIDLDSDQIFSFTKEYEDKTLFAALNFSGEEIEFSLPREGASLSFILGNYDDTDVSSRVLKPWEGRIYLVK
Description: (§1) In the experiment, the concentration of the fixed substrate Gal-G2-α-CNP/pNPG solution was 5 mmol/L, and the concentrations of the two enzymes (100, 200, 300, 400 U/L) were used to determine the effect of different concentrations of porphyrins on enzyme activity. The concentration of the enzyme was 200 U/L, and the concentration of the substrate Gal-G2-α-CNP/pNPG solution (2.5, 5, 7.5, 10 mmol/L) was used to determine the effect of different concentrations of porphyrins on the enzyme-catalyzed substrate activity.
(§2) Upon identifying the type of inhibition, the kinetic equations vary for different inhibition types.
(§3) In the formula, v, Vmax, Km, Ki, and Kis represent the reaction rate, maximum reaction rate, Michaelis constant, and free enzyme inhibition constant, respectively, and the binding enzyme inhibition constant. [S] denotes the substrate concentration. [I] denotes the inhibitor concentration.

α-glucosidase [2] = biological target: T1, α-glucosidase; assay: Fluorescence quenching, binding and thermodynamics with α-glucosidase; settings: for binding constants K: 310 K; for quenching mechanism of α-glucosidase fluorescence: Stern–Volmer plots; for quenching mechanism of α-glucosidase fluorescence / ΔH^0 / ΔS^0: 298–310 K; for ΔH^0 / ΔS^0: Van’t Hoff
Protocol: In the α-amylase experiment, a series of porphyrins and amylase (200 U/L) were mixed in a volume ratio of 1:1. In the α-glucosidase experiment, the glucosidase concentration was 400 U/L, mixed in a volume ratio of 1:1; the samples were maintained at three different temperatures (298, 304, and 310 K) for 30 min, with excitation at 280 nm and emission scanning from 300 to 500 nm.
(§4) The Stern–Volmer equation [35] was adopted to determine the quenching mechanisms between six porphyrin compounds and both enzymes in the experimental group, with Formula (6):(6) F0/F=1+Ksv[Q]=1+Kqτ0[Q]
(§5) The Stern–Volmer equation was adapted based on experimental data to more accurately characterize the quenching behavior [36], with Formula (7):(7) F0/F=e^Ksv[Q]=e^Kqτ0[Q]
(§6) In the formula, the fluorescence quenching ratio was calculated as F0/F, where F0 corresponds to the emission intensity of pure α-amylase solution (control) and F denotes the intensity measured after the incremental addition of porphyrin ligands. KSV and Kq denote the Stern–Volmer quenching constant and the bimolecular quenching rate constant, respectively, τ0 (10^−8 s) is the average fluorescence lifetime of the fluorophore in the absence of quencher, and [Q] indicates the concentration of porphyrin compounds.
(§7) Due to the presence of an internal filtration effect, a decrease in the fluorescence intensity of the system may occur. Therefore, all fluorescence data were corrected using Formula (8) to eliminate the internal filtration effect.(8) Fcor=Fobse^(Aex+Aem)/2
(§8) The evaluation of the interaction forces between porphyrin compounds and the two enzymes can be achieved by calculating thermodynamic parameters. When both ΔH^0 and ΔS^0 are positive, the predominant interaction force is hydrophobic. When both ΔH^0 and ΔS^0 are negative, the main forces are hydrogen bonding and van der Waals forces. When ΔH^0 < 0 and ΔS^0 > 0, the primary interaction is electrostatic attraction.
(§9) The thermodynamic parameters were calculated using Formulas (9) and (10), and then the Van’t Hoff plot for the interactions between the porphyrin compounds and the two enzymes was generated by plotting lnKa on the Y-axis versus 1/T on the X-axis.(9) lnKa=−ΔH^0/RT+ΔS^0/R (10) ΔG^0=ΔH^0−TΔS^0=−RTlnKa

α-amylase [3] = biological target: T2, α-amylase (Sus scrofa, UniProt P00690); assay: Fluorescence quenching, binding and thermodynamics with α-amylase; settings: for quenching mechanism of α-amylase fluorescence: Stern–Volmer plots; for quenching mechanism of α-amylase fluorescence / ΔH^0 / ΔS^0: 298–310 K; for ΔH^0 / ΔS^0: Van’t Hoff
T2 sequence (P00690 16-511): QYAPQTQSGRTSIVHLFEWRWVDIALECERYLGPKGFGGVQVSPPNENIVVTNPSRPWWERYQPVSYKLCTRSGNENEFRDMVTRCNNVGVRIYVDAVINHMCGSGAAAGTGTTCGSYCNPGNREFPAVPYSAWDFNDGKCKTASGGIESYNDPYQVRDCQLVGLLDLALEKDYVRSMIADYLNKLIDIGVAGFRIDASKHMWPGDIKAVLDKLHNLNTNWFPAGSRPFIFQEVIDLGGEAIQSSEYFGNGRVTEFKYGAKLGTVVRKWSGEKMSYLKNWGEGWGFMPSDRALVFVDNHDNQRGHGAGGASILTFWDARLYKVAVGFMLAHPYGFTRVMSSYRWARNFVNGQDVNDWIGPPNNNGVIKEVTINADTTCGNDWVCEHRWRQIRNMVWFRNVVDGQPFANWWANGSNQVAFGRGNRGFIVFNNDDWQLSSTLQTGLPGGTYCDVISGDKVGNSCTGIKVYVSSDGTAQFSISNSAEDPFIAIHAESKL
Description: In the α-amylase experiment, a series of porphyrins and amylase (200 U/L) were mixed in a volume ratio of 1:1.
as §4, §5, §6, §7, §8, §9

α-amylase [4] = biological target: T2, α-amylase; assay: Three-dimensional fluorescence spectroscopy of α-amylase complexes; settings: 298 K; TAPP 2.5, THPP 10, TCPP 10, Fe–TCPP 12.5, Ni–TCPP 17.5, Cu–TCPP 10 μg/mL
α-amylase [5] = biological target: T2, α-amylase; assay: Mode of α-AMY inhibition (reversibility, Lineweaver–Burk kinetics); assay type: biochemical; settings: for type of inhibition of α-amylase: Lineweaver–Burk plots; for reversibility of inhibition of α-amylase: enzyme 100–400 U/L, substrate 5 mmol/L; for Kis: enzyme–substrate complex inhibition constant
Description: as §1, §2, §3

[6] = free enzyme inhibition constant

## Oc1ccc(-c2c3nc(c(-c4ccc(O)cc4)c4ccc([nH]4)c(-c4ccc(O)cc4)c4nc(c(-c5ccc(O)cc5)c5ccc2[nH]5)C=C4)C=C3)cc1 [THPP]
α-glucosidase [1]; C 1 μg/mL
  Vmax: 0.1528 ± 0.0020 ΔOD/min
α-glucosidase [1]; C 2.5 μg/mL
  Vmax: 0.1013 ± 0.0035 ΔOD/min
α-glucosidase [1]; C 5 μg/mL
  Vmax: 0.0649 ± 0.0019 ΔOD/min
α-glucosidase [1]; C 7.5 μg/mL
  Vmax: 0.0489 ± 0.0009 ΔOD/min
α-glucosidase [1]; C 10 μg/mL
  Vmax: 0.0377 ± 0.0009 ΔOD/min
α-glucosidase [1]
  type of inhibition of α-glucosidase: non-competitive inhibition
  reversibility of inhibition of α-glucosidase: reversible inhibition
α-glucosidase [2]
  binding constants K: (3.39 ± 0.03) × 10^5 L·mol^−1
  quenching mechanism of α-glucosidase fluorescence: static quenching
  ΔH^0: -23.22 ± 0.022 kcal/mol
  ΔS^0: −207.25 ± 0.13 J/mol/k
α-glucosidase [2]; T 298 K
  Kq: 7.40 ± 0.06 ×10^12 L/mol/s
  Ksv: 7.40 ± 0.06 ×10^4 L/mol
  n (number of binding sites): 1.29
  ΔG^0: -8.439 ± 0.0239 kcal/mol
α-glucosidase [2]; T 304 K
  Kq: 6.97 ± 0.06 ×10^12 L/mol/s
  Ksv: 6.97 ± 0.06 ×10^4 L/mol
  n (number of binding sites): 1.23
  ΔG^0: -8.212 ± 0.022 kcal/mol
α-glucosidase [2]; T 310 K
  Kq: 6.69 ± 0.04 ×10^12 L/mol/s
  Ksv: 6.69 ± 0.04 ×10^4 L/mol
  n (number of binding sites): 1.16
  ΔG^0: -7.844 ± 0.014 kcal/mol
α-amylase [3]
  quenching mechanism of α-amylase fluorescence: pure static quenching
  ΔH^0: -12.73 ± 0.012 kcal/mol
  ΔS^0: −68.61 ± 0.06 J/mol/k
α-amylase [3]; T 298 K
  Kq: 8.90 ± 0.06 ×10^12 L/mol/s
  Ksv: 8.90 ± 0.06 ×10^4 L/mol
  n (number of binding sites): 1.19
  ΔG^0: -7.844 ± 0.019 kcal/mol
α-amylase [3]; T 304 K
  Kq: 8.20 ± 0.02 ×10^12 L/mol/s
  Ksv: 8.20 ± 0.02 ×10^4 L/mol
  n (number of binding sites): 1.16
  ΔG^0: -7.737 ± 0.019 kcal/mol
α-amylase [3]; T 310 K
  Kq: 7.64 ± 0.07 ×10^12 L/mol/s
  Ksv: 7.64 ± 0.07 ×10^4 L/mol
  n (number of binding sites): 1.12
  ΔG^0: -7.646 ± 0.017 kcal/mol
α-amylase [4]
  Peak 1 Fluorescence Intensity: 297.5
  Peak 2 Fluorescence Intensity: 32.69
α-amylase [5]; C 20 μg/mL
  Vmax: 0.0740 ± 0.0028 ΔOD/min
α-amylase [5]; C 30 μg/mL
  Vmax: 0.0580 ± 0.0010 ΔOD/min
α-amylase [5]; C 40 μg/mL
  Vmax: 0.0491 ± 0.0012 ΔOD/min
α-amylase [5]; C 50 μg/mL
  Vmax: 0.0426 ± 0.0013 ΔOD/min
α-amylase [5]; C 60 μg/mL
  Vmax: 0.0376 ± 0.0012 ΔOD/min
α-amylase [5]
  type of inhibition of α-amylase: mixed type
  reversibility of inhibition of α-amylase: reversible inhibition
  Kis: 23.1012 ± 0.1027 µg/mL

## iron (III) meso-tetra (4-carboxyphenyl) porphyrin chloride [Fe–TCPP]
α-glucosidase [1]
  Km: 2.6958 ± 0.0821 µg/mL and 3.3979 ± 0.1076 µg/mL and 3.9231 ± 0.1098 µg/mL and 4.1566 ± 0.0981 µg/mL and 4.3847 ± 0.0694 µg/mL
  type of inhibition of α-glucosidase: mixed type
  reversibility of inhibition of α-glucosidase: reversible inhibition
α-glucosidase [1]; C 16 μg/mL
  Vmax: 0.0771 ± 0.0023 ΔOD/min
α-glucosidase [1]; C 32 μg/mL
  Vmax: 0.0601 ± 0.0019 ΔOD/min
α-glucosidase [1]; C 48 μg/mL
  Vmax: 0.0502 ± 0.0014 ΔOD/min
α-glucosidase [1]; C 64 μg/mL
  Vmax: 0.0416 ± 0.0010 ΔOD/min
α-glucosidase [1]; C 80 μg/mL
  Vmax: 0.0361 ± 0.0006 ΔOD/min
α-glucosidase [1]; enzyme–substrate complex inhibition constant
  Kis: 40.4085 ± 0.1084 µg/mL
α-glucosidase [1]; [6]
  Ki: 9.8917 ± 0.0514 µg/mL
α-glucosidase [2]
  binding constants K: (1.02 ± 0.02) × 10^5 L·mol^−1
  quenching mechanism of α-glucosidase fluorescence: static quenching
  ΔH^0: -7.385 ± 0.014 kcal/mol
  ΔS^0: −3.88 ± 0.01 J/mol/k
α-glucosidase [2]; T 298 K
  Ka (binding constant): 1.65 ± 0.03 ×10^5 L/mol
  Kq: 14.52 ± 0.07 ×10^12 L/mol/s
  Ksv: 14.52 ± 0.07 ×10^4 L/mol
  n (number of binding sites): 1.01
  ΔG^0: -7.113 ± 0.012 kcal/mol
α-glucosidase [2]; T 304 K
  Ka (binding constant): 1.26 ± 0.03 ×10^5 L/mol
  Kq: 13.18 ± 0.05 ×10^12 L/mol/s
  Ksv: 13.18 ± 0.05 ×10^4 L/mol
  n (number of binding sites): 1.00
  ΔG^0: -7.094 ± 0.017 kcal/mol
α-glucosidase [2]; T 310 K
  Ka (binding constant): 1.02 ± 0.02 ×10^5 L/mol
  Kq: 12.20 ± 0.07 ×10^12 L/mol/s
  Ksv: 12.20 ± 0.07 ×10^4 L/mol
  n (number of binding sites): 0.98
  ΔG^0: -7.103 ± 0.014 kcal/mol
α-amylase [3]
  quenching mechanism of α-amylase fluorescence: mixed quenching
  ΔH^0: -93.248 ± 0.0406 kcal/mol
  ΔS^0: −1156.68 ± 0.13 J/mol/k
α-amylase [3]; T 298 K
  Ka (binding constant): 944.30 ± 0.18 ×10^5 L/mol
  Kq: 4.32 ± 0.06 ×10^12 L/mol/s
  Ksv: 4.32 ± 0.06 ×10^4 L/mol
  n (number of binding sites): 1.65
  ΔG^0: -10.87 ± 0.017 kcal/mol
α-amylase [3]; T 304 K
  Ka (binding constant): 40.38 ± 0.09 ×10^5 L/mol
  Kq: 3.36 ± 0.06 ×10^12 L/mol/s
  Ksv: 3.36 ± 0.06 ×10^4 L/mol
  n (number of binding sites): 1.38
  ΔG^0: -9.19 ± 0.014 kcal/mol
α-amylase [3]; T 310 K
  Ka (binding constant): 2.13 ± 0.05 ×10^5 L/mol
  Kq: 3.29 ± 0.08 ×10^12 L/mol/s
  Ksv: 3.29 ± 0.08 ×10^4 L/mol
  n (number of binding sites): 1.05
  ΔG^0: -7.557 ± 0.019 kcal/mol
α-amylase [4]
  Peak 1 Fluorescence Intensity: 270.8
  Peak 2 Fluorescence Intensity: 28.26
α-amylase [5]; C 25 μg/mL
  Km: 2.7329 ± 0.0882 µg/mL
  Vmax: 0.1143 ± 0.0037 ΔOD/min
α-amylase [5]; C 50 μg/mL
  Km: 2.9384 ± 0.0447 µg/mL
  Vmax: 0.0972 ± 0.0015 ΔOD/min
α-amylase [5]; C 100 μg/mL
  Km: 3.2079 ± 0.1016 µg/mL
  Vmax: 0.0748 ± 0.0024 ΔOD/min
α-amylase [5]; C 150 μg/mL
  Km: 3.3360 ± 0.0508 µg/mL
  Vmax: 0.0601 ± 0.0009 ΔOD/min
α-amylase [5]; C 200 μg/mL
  Km: 3.4920 ± 0.0491 µg/mL
  Vmax: 0.0512 ± 0.0007 ΔOD/min
α-amylase [5]
  type of inhibition of α-amylase: mixed type
  reversibility of inhibition of α-amylase: reversible inhibition
  Kis: 117.2152 ± 0.1432 µg/mL
α-amylase [5]; [6]
  Ki: 69.5865 ± 0.1284 µg/mL
